Earlier results in patent US8748570B2, “Insulin analogues” (priority 2010, dated 2014).
Like-named read-outs stand apart in the source and are kept apart here.

Experiments:
[1] = biological target: IGF-IR (Homo sapiens, UniProt P08069)
[2] = test system: isolated rat adipocytes
[3] = test system: cultured human lymphocytes

In the case of “detemir: long-acting insulin with a fatty acid chain on the ε-amino group of LysB29”, the in vivo potency is given as “reduced”.

In the case of “Glargine insulin: long-acting insulin: two arginines added to the B-chain C-terminus, glycine at A21”, the duration of activity (in vivo) is listed as 24 h, the “peak time of effect” value (in vivo) is listed as “no peak effect” and the IGF-IR binding [1] is listed as “enhanced”.

For “A7, B7-(2,7-diaminosuberoyl]-des-(B26-B30)-insulin B25-amide [dicarba-A7-B7-insulin]”, the EC50 ([2]; lipogenesis, read-out: ED50 (the source's name)) is listed as 4.8 nM, the “relative potency compared to human insulin” value ([2]; on a molar basis) is listed as 0.66% and the “relative potency compared to human insulin” value ([2]; on a weight basis) is listed as 0.72%. For the same substance, the Relative binding affinity [3] was 0.1 % of human insulin.
